In paper PMC5372259, “Purification, characterization and amino acid content of cholesterol oxidase produced by Streptomyces aegyptia NEAE 102” (BMC Microbiology, 2017):

Test system: T1, cholesterol oxidase from Streptomyces aegyptia NEAE 102
T1 construct: gene choA; native extracellular enzyme purified from culture supernatant (ammonium sulfate, DEAE Sepharose CL-6B); 46 kDa by SDS-PAGE
Test: peroxidase-coupled H2O2 assay (4-aminoantipyrine/phenol, […] nm); Michaelis-Menten nonlinear regression
Format: biochemical
Conditions: pH 7.0 potassium phosphate, 37 °C, Triton X-100; O2 as co-substrate

Km: 152 µM
Structure (SMILES): CC(C)CCC[C@@H](C)[C@H]1CC[C@H]2[C@@H]3CC=C4C[C@@H](O)CC[C@]4(C)[C@H]3CC[C@]12C [cholesterol]
